Key:
[1] = Compound was evaluated for effective concentration […] for Dopamine receptor D2 mitogenesis. (95% confidence intervals)
[2] = Binding affinity to rat Dopamine receptor D3 expressed in CHO cells was determined using [125 I] iodosulpride as radioligand

SMILES | EC50 [1] | Ki [2]
Nc1ccc(C#CCCN2CC=C(c3ccccc3)CC2)cc1 [4-[4-(4-Phenyl-3,6-dihydro-2H-pyridin-1-yl)-but-1-ynyl]-phenylamine] | 0.5 nM | –
Nc1cccc(C#CCCN2CC=C(c3ccccc3)CC2)c1 [3-[4-(4-Phenyl-3,6-dihydro-2H-pyridin-1-yl)-but-1-ynyl]-phenylamine] | 9.8 nM | 0.36 nM
